Legend:
[1] = Excretion of administered dose in rat urine and feces; assay type: in vivo, male Sprague-Dawley rats; details: for Percent of Dose, Total (urine, feces and liver): Oral, 24 h after [14C]Compound 1; for Total excretion (urine + feces), % of the administered dose: rat
Experimental: Isotopically diluted [^14C]-Compound 1 was administered intravenously to male Sprague-Dawley rats at 50 mg/kg or by oral gavage at 100 mg/kg.
(§1) Percent of the administered dose (% AD) for parent drug and each metabolite at each collection period=(% of the total radioactivity in the sample attributed to the metabolite)*(total radioactivity expressed as % of the administered dose, recovered during the corresponding collection period).
The urine and feces of each animal were analyzed for radiolabel content.

[2] = as above; assay type: in vivo, male Sprague-Dawley rats; details: IV; 24 h after [14C]Compound 1
[3] = Metabolite profiling in human liver microsomes; assay type: in vitro ADME; set-up: key: +: peak detected; ?: peak observed; ND: not detected; details: 50 μM Compound 1, 2 hours
Experimental: Preliminary identification of putative metabolites was conducted by comparing the retention time of observed metabolites with retention times obtained with chemically synthesized standards using the following HPLC-UV method:
Incubations with liver microsomes, liver cytosol or pig liver esterase were conducted in a final volume of 0.1 mL per incubation time point. Pooled microsomal protein (1.0 mg/mL) suspended in incubation buffer (0.1 M potassium phosphate, pH 7.4) was incubated for 2 hours at 37° C. with 50 μM Compound 1 from a stock solution in DMSO (final DMSO concentration was 0.1%); the microsomal reaction was initiated by the addition of an NADPH regenerating system (1.3 mM NADP^+, 3.3 mM glucose-6-phosphate, 0.4 U/ml glucose-6-phosphate dehydrogenase, and 3.3 mM MgCl2, final concentrations). Incubations with no NADPH or no protein served as controls. Reactions were terminated by the addition of 0.1 mL of stop solution (acetonitrile). The samples were vortex-mixed for 30 sec and then centrifuged at 10,000×g for 10 min. The supernatant was dried using a Labconco CentriVap concentrator and the dry residue reconstituted in water, transferred to an HPLC glass vial and analyzed by HPLC-UV method 2 (described above).
Results: Preliminary identification was accomplished by comparing LC elution of metabolites with that of available synthetic standards of putative metabolites (FIG. 2). Metabolites U1, U2 and U3 were characterized based on the retention times.

[4] = Metabolite profile in rat urine; assay type: in vivo, male Sprague-Dawley rats; details: for Percent of Dose, Urine 0-24 h: after [14C]Compound 1; for % AD, estimated: from single animal HPLC distribution and mean % AD; for Total % AD, estimated / Total % AD: total of all collections; for % of total urinary excretion / Total % AD: group 1C (IV dose) urine
Experimental: Pooled urine samples were prepared for Groups 1C and 2C by mixing a fixed percent of the total volume for all four animals from the selected time points. For Group 1C, samples of the 1-, 2-, 6-, and 24-h collection intervals were pooled. For Group 2C, a pool of samples from all four animals was prepared for the 24 h collection intervals only. For 1-, 2-, and 6 h collection intervals, a urine sample of a single animal of Group 2A or 2B was used for analysis. All samples were brought to room temperature and vortexed briefly. The samples were diluted as necessary (2- to 20-fold) with appropriate aqueous mobile phase for the selected HPLC method. The pooled and diluted samples from the 24 h collection interval were centrifuged at 2040×g for 10 minutes. All other samples were analyzed without centrifugation. HPLC method 1 was used for HPLC profiling. Selected samples were analyzed by HPLC method 2 for comparison with the metabolite profile generated by microsomal and hepatocyte incubations (Examples 14 and 15) and with the metabolite profile of liver extracts.
as §1
HPLC analyses of pooled urine samples of all time points were conducted for Group 1C. Metabolites R1, R2, R3, R4, R5, R6, R7 and R8 were characterized based on retention time.
For the PO dose group, a pooled urine sample from the 24-h collection time was analyzed. For 1-, 2-, and 6-h collection times, the majority of the samples had been used for radioanalysis. The remaining samples were insufficient for proportional pooling. Therefore, single animal samples of […] groups were used for HPLC profiling. Metabolites R^1, R^2, R^3, R^4, R^5, R^6, R^7 and R^8 were characterized based on retention time.
Table 50 contains data from single animal samples and pooled samples. To estimate overall distribution of urinary metabolites, it was assumed that the profile from a single animal is reflective of the overall average metabolite profile. Therefore, HPLC distribution data from single animals was used to calculate the percentage of administered dose excreted as various metabolites during the 1-, 2-, and 6-h collection intervals. Metabolites R1, R2, R3, R4, R5, R6, R7 and R8 were characterized based on retention time.

[5] = Stability in human liver microsomes; assay type: in vitro ADME; details: for % Residual Compound 2: human liver microsomes 1 mg/mL, 15 min, 10 μM; for % Residual compound following incubation with liver microsomes: human microsomes 1 mg/mL
Experimental: Disappearance of parent Compound 1 was used to evaluate the in vitro metabolism thereof. Relative levels of unchanged Compound 1 were measured by HPLC-UV method 1. Residual Compound 1 is reported as percent difference from time zero or control. The HPLC-UV system was as follows:
Incubations with liver microsomes or cytosol were conducted in a final volume of 0.1 mL per incubation time point. […] The microsomal reaction was initiated by the addition of NADPH (3 mM final concentration). Incubations with (a) no protein or (b) no NADPH served as controls. Reactions were terminated by the addition of 0.2 mL of stop solution (acetonitrile). The samples were vortex-mixed for 30 sec and then centrifuged at 10,000×g for 10 min. The supernatant was dried using a Labconco CentriVap concentrator and the dry residue reconstituted in water, transferred to an HPLC glass vial and analyzed by HPLC-UV method 1 (described above).
Metabolic stability of the proposed metabolites was conducted by incubating the chemically synthesized standards Compound 2, Compound 4 and Compound 3 as described above for Compound 1. When possible, formation of Compound 5 was verified by incubating samples with alkaline phosphatase (10 U) for 60 min at 37° C.

[6] = PO dose urine, 1 h collection, single animal (#15, Group 2A)
[7] = PO dose urine, 2 h collection, single animal (#20, Group 2B)
[8] = PO dose urine, 6 h collection, single animal (#20, Group 2B)
[9] = estimated profile table, group 2C (PO dose) urine, 24 h
[10] = estimated profile, group 2C (PO dose) urine
[11] = estimated profile, group 2C (PO dose) urine, 2 h
[12] = estimated profile, group 2C (PO dose) urine, 2 h, single animal % HPLC distribution
[13] = group 1C (IV dose) pooled urine, 1 h collection
[14] = group 1C (IV dose) pooled urine, 2 h collection
[15] = group 1C (IV dose) pooled urine, 6 h collection
[16] = group 1C (IV dose) pooled urine, 24 h collection
[17] = group 2C (PO dose) pooled urine, 24 h collection

C[C@@]1(O)[C@H](O)[C@@H](COP(=O)(O)OP(=O)(O)O)O[C@H]1n1cnc2c(=O)[nH]c(N)nc21 [Compound 6, [(2R)-2-methyl-β-D-ribofuranosyl]guanine 5′-diphosphate]
Percent of Dose, Total (urine, feces and liver) [1]: 0.08% of Dose
Percent of Dose, Total (urine, feces and liver) [2]: 0.29% of Dose

C[C@@]1(O)[C@H](O)[C@@H](CO)O[C@H]1n1cnc2c(=O)[nH]c(N)nc21 [2′-C-methyl guanosine, 9-(2-C-methyl-β-D-ribofuranosyl)guanine, reference compound]
In vitro metabolite profile in microsomes following incubation with Compound 1 (peak detection) [3]: +
Total excretion (% AD), total (urine + feces) ([1]; IV (1C)): 34.0 % AD
Percent of Dose, Total (urine, feces and liver) [1]: 28.3% of Dose
Total excretion (% AD), total (urine + feces) ([1]; PO (2C), urine data estimated): 28.2 % AD
Total excretion (urine + feces), % of the administered dose ([1]; IV dose): 34.0%
Total excretion (urine + feces), % of the administered dose ([1]; PO dose): 28.2%
Total excretion (% AD), urine ([4]; IV (1C)): 18.0 % AD
Percent of Dose, Urine 0-24 h ([4]; IV): 18.0% of Dose
Percent of Dose, Urine 0-24 h ([4]; Oral): 2.56% of Dose
Total excretion (% AD), urine ([4]; PO (2C), urine data estimated): 2.56 % AD
% AD (percent of administered dose) [4, 6]: 0.004 % AD
% HPLC (percent of HPLC peak area in the sample extract) [4, 6]: 5.33%
% AD (percent of administered dose) [4, 7]: 0.06 % AD
% HPLC (percent of HPLC peak area in the sample extract) [4, 7]: 56.2%
% AD (percent of administered dose) [4, 8]: 0.24 % AD
% HPLC (percent of HPLC peak area in the sample extract) [4, 8]: 86.18%
% AD [4, 9]: 2.14 % AD
% HPLC (percent of HPLC peak area in the sample extract) [4, 9]: 92.1%
% of total urinary excretion, estimated [4, 10]: 90.4%
% AD, estimated ([4]; estimated profile, group 2C (PO dose) urine, 1 h): 0.001 % AD
% HPLC (percent of HPLC peak area in the sample extract) ([4]; estimated profile, group 2C (PO dose) urine, 1 h, single animal % HPLC distribution): 5.33%
% AD, estimated [4, 11]: 0.02 % AD
% HPLC (percent of HPLC peak area in the sample extract) [4, 12]: 56.2%
% AD, estimated ([4]; estimated profile, group 2C (PO dose) urine, 6 h): 0.40 % AD
% HPLC (percent of HPLC peak area in the sample extract) ([4]; estimated profile, group 2C (PO dose) urine, 6 h, single animal % HPLC distribution): 86.18%
Total % AD, estimated [4, 10]: 2.56 % AD
% AD (percent of administered dose) [4, 13]: 0.48 % AD
% HPLC (percent of HPLC peak area in the sample extract) [4, 13]: 2.12%
% AD (percent of administered dose) [4, 14]: 1.79 % AD
% HPLC (percent of HPLC peak area in the sample extract) [4, 14]: 35.1%
% AD (percent of administered dose) [4, 15]: 1.35 % AD
% HPLC (percent of HPLC peak area in the sample extract) [4, 15]: 57.7%
% AD (percent of administered dose) [4, 16]: 14.4 % AD
% HPLC (percent of HPLC peak area in the sample extract) [4, 16]: 86.7%
% of total urinary excretion [4]: 38.4%
Total % AD [4]: 18.0 % AD
% AD (percent of administered dose) [4, 17]: 2.14 % AD
% HPLC (percent of HPLC peak area in the sample extract) [4, 17]: 92.1%
% of the total urinary excretion ([4]; rat urine, IV dose 50 mg/kg): 38.4%
urinary component, % of the administered dose (% AD) ([4]; rat urine, IV dose 50 mg/kg, 0-24 h, 50 mg/kg): 18 % AD
% of the total urinary excretion ([4]; rat urine, PO dose 100 mg/kg): 90.4%
urinary component, estimated % of the administered dose (% AD) ([4]; rat urine, PO dose 100 mg/kg, 0-24 h): 2.6 % AD
Percent of Dose, Total (urine, feces and liver) [2]: 34.5% of Dose

C[C@@]1(O)[C@H](O)[C@@H](COP(=O)(O)NCc2ccccc2)O[C@H]1n1cnc2c(=O)[nH]c(N)nc21 [Compound 2, [(2R)-2-methyl-β-D-ribofuranosyl]guanine-N-benzylaminyl-5′-monophosphate]
% Residual Compound 2 ([5]; NADPH): 0%
% Residual Compound 2 ([5]; No Cofactor): 0%
Percent of Dose, Total (urine, feces and liver) [1]: 0.001% of Dose
Percent of Dose, Urine 0-24 h ([4]; IV): 0.76% of Dose
Percent of Dose, Urine 0-24 h ([4]; Oral): 0.001% of Dose
% AD (percent of administered dose) [4, 7]: 0.002 % AD
% HPLC (percent of HPLC peak area in the sample extract) [4, 7]: 1.81%
% of total urinary excretion, estimated [4, 10]: 0.03%
% AD, estimated [4, 11]: 0.001 % AD
% HPLC (percent of HPLC peak area in the sample extract) [4, 12]: 1.81%
Total % AD, estimated [4, 10]: 0.001 % AD
% AD (percent of administered dose) [4, 13]: 0.52 % AD
% HPLC (percent of HPLC peak area in the sample extract) [4, 13]: 2.29%
% AD (percent of administered dose) [4, 14]: 0.13 % AD
% HPLC (percent of HPLC peak area in the sample extract) [4, 14]: 2.57%
% AD (percent of administered dose) [4, 15]: 0.03 % AD
% HPLC (percent of HPLC peak area in the sample extract) [4, 15]: 1.40%
% AD (percent of administered dose) [4, 16]: 0.07 % AD
% HPLC (percent of HPLC peak area in the sample extract) [4, 16]: 0.45%
% of total urinary excretion [4]: 1.62%
Total % AD [4]: 0.76 % AD
Percent of Dose, Total (urine, feces and liver) [2]: 0.76% of Dose

CC(C)(CO)C(=O)SCCOP(N)(=O)OC[C@H]1O[C@@H](n2cnc3c(=O)[nH]c(N)nc32)[C@](C)(O)[C@@H]1O (mixture of isomers) [Compound 3, {9-[(2R)2-C-methyl-β-D-ribo-furanosyl]-guanin}-5′-yl-O-(hydroxy-tert-butyl-S-acyl-2-thioethyl) phosphoramidate]
NADPH-dependent metabolism ([5]; human liver microsomes, 60 min, 50 μM): 20-30%
% Residual compound following incubation with liver microsomes ([5]; 60 min, 50 μM, NADPH): 82%
% Residual compound following incubation with liver microsomes ([5]; 60 min, 50 μM, No Cofactor): 103%

C[C@@]1(O)[C@H](O)[C@@H](COP(=O)(O)O)O[C@H]1n1cnc2c(=O)[nH]c(N)nc21 [Compound 5, [(2R)-2-methyl-β-D-ribofuranosyl]guanine 5′-monophosphate]
In vitro metabolite profile in microsomes following incubation with Compound 1 (peak detection) [3]: +
Percent of Dose, Total (urine, feces and liver) [2]: 1.05% of Dose
